Results taken from PubChem BioAssay (NCI).
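96-well plates; 48 h exposure; 5 concentrations. Endpoints by linear interpolation between flanking doses. Not reached: highest tested concentration assigned. Here, GI50 denotes the concentration required for 50% inhibition of growth. TGI is the concentration that stops growth completely.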

Legend:
Experiment in all cases: growth of human tumour cells (NCI), 48 h
[1] = test system: OVCAR-4 ovarian
[2] = test system: NCI-H522 lung
[3] = test system: SF-268 CNS
[4] = test system: OVCAR-3 ovarian
[5] = test system: A549 NSCLC
[6] = test system: HOP-62 NSCLC
[7] = test system: SNB-19 CNS
[8] = test system: SNB-75 CNS
[9] = test system: 786-0 renal
[10] = test system: HL-60(TB) leukemia

C=CCCCCCCCCCCC1(O)C=CC2=[N+](CCCCCN=C(N)N)CCCN21 (configuration not stated)
GI50 [1]: 4.84 µM | TGI [1]: 19.9 µM | GI50 [2]: 3.6 µM | TGI [2]: 18.4 µM | GI50 [3]: 7.7 µM | TGI [3]: 26.7 µM | GI50 [4]: 13 µM | TGI [4]: 36.8 µM | GI50 [5]: 5.06 µM | TGI [5]: 24.6 µM | GI50 [6]: 8.68 µM | TGI [6]: 32 µM | GI50 [7]: 5.86 µM | TGI [7]: 30.4 µM | GI50 [8]: 8.62 µM | TGI [8]: 25.9 µM | GI50 [9]: 7.47 µM | TGI [9]: 29.8 µM

CCCCCCC[CH2][Sn]1([CH2]CCCCCCC)[O]C(=O)c2cccnc2[S]1
GI50 [1]: > 100 µM | TGI [1]: > 100 µM | GI50 [2]: > 100 µM | TGI [2]: > 100 µM | GI50 [4]: > 100 µM | TGI [4]: > 100 µM | GI50 [5]: > 100 µM | TGI [5]: > 100 µM | GI50 [6]: > 100 µM | TGI [6]: > 100 µM | GI50 [7]: > 100 µM | TGI [7]: > 100 µM | GI50 [8]: > 100 µM | TGI [8]: > 100 µM | GI50 [10]: > 100 µM | TGI [10]: > 100 µM | GI50 [9]: > 100 µM | TGI [9]: > 100 µM

CCc1cccc(C)c1NC(=O)C(=O)Cc1nc2ccccc2o1
TGI [1]: > 100 µM | TGI [2]: > 100 µM | TGI [3]: > 100 µM | TGI [4]: > 100 µM | TGI [6]: > 100 µM | TGI [7]: > 100 µM | TGI [10]: > 100 µM | TGI [9]: > 100 µM

O=C(CSc1nnc(-c2ccc(N=Cc3ccc(Cl)cc3)cc2)o1)Nc1ccc(Cl)cc1
TGI [1]: > 100 µM | TGI [2]: > 100 µM | TGI [3]: > 100 µM | TGI [5]: > 100 µM | TGI [6]: > 100 µM | TGI [7]: > 100 µM | TGI [8]: > 100 µM | TGI [10]: > 100 µM | TGI [9]: > 100 µM

CCOc1ccc(N2C(=O)/C(=C/c3ccc(N(CCC#N)CCC#N)cc3)N=C2c2cc([N+](=O)[O-])ccc2Cl)cc1
TGI [1]: > 100 µM | TGI [3]: > 100 µM | TGI [4]: 56.5 µM | TGI [5]: > 100 µM | TGI [6]: > 100 µM | TGI [7]: > 100 µM | TGI [8]: > 100 µM | TGI [10]: > 100 µM | TGI [9]: 26.4 µM

CCOc1ccc2nc(S/C(=C/C=C(C#N)C#N)c3ccc(C)cc3)sc2c1
GI50 [1]: 94.4 µM | TGI [1]: > 100 µM | GI50 [2]: 20.8 µM | TGI [2]: 49.3 µM | GI50 [3]: 30 µM | TGI [3]: > 100 µM | GI50 [4]: 32.6 µM | TGI [4]: > 100 µM | GI50 [5]: 46.7 µM | TGI [5]: > 100 µM | GI50 [6]: 44.9 µM | TGI [6]: > 100 µM | GI50 [7]: > 100 µM | TGI [7]: > 100 µM | GI50 [10]: 4.55 µM | TGI [10]: 20.4 µM | GI50 [9]: 21.9 µM | TGI [9]: 46.8 µM

O=C(O)[C@H](NS(=O)(=O)c1ccc2ccccc2c1)c1ccccc1
TGI [1]: > 100 µM | TGI [2]: > 100 µM | TGI [3]: > 100 µM | TGI [7]: > 100 µM | TGI [8]: > 100 µM | TGI [10]: > 100 µM | TGI [9]: > 100 µM

CC(C)=CCc1cc(O)cc2c1OC(C=C(C)C)C1=C2C(=O)C2=C(NCCS2(=O)=O)C1=O (configuration not stated)
GI50 [1]: 0.811 µM | TGI [1]: 3.06 µM | GI50 [2]: 2.64 µM | TGI [2]: 7.41 µM | GI50 [3]: 2.34 µM | TGI [3]: 8.2 µM | GI50 [4]: 0.456 µM | TGI [4]: 2.01 µM | GI50 [5]: 3.17 µM | TGI [5]: 6.83 µM | GI50 [6]: 3.01 µM | TGI [6]: 5.94 µM | GI50 [7]: 2.25 µM | TGI [7]: 4.44 µM | GI50 [8]: 2.53 µM | TGI [8]: 4.86 µM | GI50 [9]: 2.93 µM | TGI [9]: 7.11 µM

COc1ccc2oc(-c3cccnc3)cc(=O)c2c1
TGI [1]: > 100 µM | TGI [3]: > 100 µM | TGI [4]: > 100 µM | TGI [6]: > 100 µM | TGI [7]: > 100 µM | TGI [8]: > 100 µM | TGI [10]: > 100 µM | TGI [9]: > 100 µM

O=c1cc2oc3cc(O)c(O)cc3c(-c3ccccc3O)c-2cc1O
GI50 [1]: 11.5 µM | TGI [1]: > 100 µM | GI50 [3]: 5.53 µM | TGI [3]: > 100 µM | GI50 [4]: 9.41 µM | TGI [4]: > 100 µM | GI50 [5]: 28.5 µM | TGI [5]: > 100 µM | GI50 [6]: 5.62 µM | TGI [6]: > 100 µM | GI50 [7]: 9.65 µM | TGI [7]: > 100 µM | GI50 [8]: 3.81 µM | TGI [8]: > 100 µM | GI50 [10]: 33.5 µM | TGI [10]: 99.6 µM | GI50 [9]: 6.32 µM | TGI [9]: 37.2 µM

O=C1c2ccccc2C2(O)c3cc4ccccc4cc3OC12O (configuration not stated)
TGI [1]: > 100 µM | TGI [2]: > 100 µM | TGI [3]: > 100 µM | TGI [4]: > 100 µM | TGI [5]: > 100 µM | TGI [6]: > 100 µM | TGI [7]: > 100 µM | TGI [8]: > 100 µM | TGI [9]: > 100 µM

COc1ccc(-c2cc(-c3ccccc3)c(C#N)c(=O)n2C2OC(CO)C(O)C(O)C2O)cc1 (configuration not stated)
TGI [1]: > 100 µM | TGI [2]: > 100 µM | TGI [3]: > 100 µM | TGI [4]: > 100 µM | TGI [5]: > 100 µM | TGI [6]: > 100 µM | TGI [7]: > 100 µM | TGI [10]: > 100 µM | TGI [9]: > 100 µM

Cc1c(Cl)cccc1N1C(=O)C(Cl)=C(Cl)C1=O
TGI [1]: > 100 µM | TGI [2]: 27.9 µM | TGI [3]: > 100 µM | TGI [4]: > 100 µM | TGI [5]: > 100 µM | TGI [6]: > 100 µM | TGI [7]: > 100 µM | TGI [8]: > 100 µM | TGI [9]: > 100 µM

O=C(Nc1cc(Cl)ccc1Cl)c1cc2cccc(Cl)c2oc1=O
TGI [2]: > 100 µM | TGI [4]: > 100 µM | TGI [5]: > 100 µM | TGI [6]: > 100 µM | TGI [8]: > 100 µM | TGI [10]: > 100 µM | TGI [9]: > 100 µM

COc1ccc(/C(=N\NC(=O)C(N)=O)C(c2ccc(OC)cc2)C2(O)C(=O)Nc3c(Cl)cccc32)cc1 (configuration not stated)
TGI [1]: > 100 µM | TGI [3]: > 100 µM | TGI [4]: > 100 µM | TGI [5]: > 100 µM | TGI [6]: > 100 µM | TGI [7]: > 100 µM | TGI [8]: > 100 µM | TGI [10]: > 100 µM | TGI [9]: > 100 µM

CCOC(=O)C(C)(C)Oc1ccc2c(C)c(-c3ccc(Cl)cc3)c(=O)oc2c1
TGI [1]: > 100 µM | TGI [3]: > 100 µM | TGI [4]: > 100 µM | TGI [5]: > 100 µM | TGI [6]: > 100 µM | TGI [7]: > 100 µM | TGI [8]: > 100 µM | TGI [10]: > 100 µM | TGI [9]: > 100 µM

COC1[C@@H](OC(C)=O)[C@@H](NC(=O)C(Cl)(Cl)Cl)C(I)[C@@H](N2C(=O)c3ccccc3C2=O)[C@H]1OC (some centres not stated)
TGI [1]: > 100 µM | TGI [2]: > 100 µM | TGI [3]: > 100 µM | TGI [5]: > 100 µM | TGI [6]: > 100 µM | TGI [7]: > 100 µM | TGI [8]: > 100 µM | TGI [10]: > 100 µM | TGI [9]: > 100 µM

NS(=O)(=O)c1ccc(N(/C=C/C(=O)C(F)(F)F)CC(=O)c2ccc(Cl)cc2)cc1
GI50 [1]: 60 µM | TGI [1]: > 100 µM | GI50 [2]: 24.3 µM | TGI [2]: 72.2 µM | GI50 [3]: 34.5 µM | TGI [3]: > 100 µM | GI50 [4]: 31.8 µM | TGI [4]: > 100 µM | GI50 [5]: 49.7 µM | TGI [5]: > 100 µM | GI50 [6]: 33 µM | TGI [6]: > 100 µM | GI50 [7]: 51.2 µM | TGI [7]: > 100 µM | GI50 [9]: 45.2 µM | TGI [9]: > 100 µM

CC(=O)OC12c3ccccc3-c3ccccc3C1C1C(=O)N(C)C(=O)C12Cl (configuration not stated)
TGI [1]: > 10 µM | TGI [2]: > 10 µM | TGI [3]: > 10 µM | TGI [4]: > 10 µM | TGI [6]: > 10 µM | TGI [7]: > 10 µM | TGI [8]: > 10 µM | TGI [10]: > 10 µM | TGI [9]: > 10 µM
